# Reference: patent publication US11111251B2, “Positive allosteric modulators of the muscarinic acetylcholine receptor M1” (Vanderbilt University, priority 2016, dated 2021)
# Target: T1, human mAChR M1 (Homo sapiens, UniProt P11229)
# T1 sequence (P11229 1-460): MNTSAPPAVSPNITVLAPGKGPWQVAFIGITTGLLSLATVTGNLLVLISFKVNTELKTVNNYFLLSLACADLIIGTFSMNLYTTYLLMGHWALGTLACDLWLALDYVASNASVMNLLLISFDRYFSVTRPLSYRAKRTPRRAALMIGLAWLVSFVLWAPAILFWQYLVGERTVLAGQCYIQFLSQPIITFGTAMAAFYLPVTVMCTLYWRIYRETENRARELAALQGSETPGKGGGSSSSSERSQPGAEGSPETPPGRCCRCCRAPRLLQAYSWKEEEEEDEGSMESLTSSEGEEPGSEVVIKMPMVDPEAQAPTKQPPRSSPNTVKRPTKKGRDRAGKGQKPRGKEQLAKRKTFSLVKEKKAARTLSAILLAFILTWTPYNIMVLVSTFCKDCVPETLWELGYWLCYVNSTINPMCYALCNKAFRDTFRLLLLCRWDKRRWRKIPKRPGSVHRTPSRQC
# Test: mAChR M1 cell-based functional assay: calcium mobilization, positive allosteric modulator mode (increase in EC20 acetylcholine response)
# Conditions: Table 2, human M1; for EC50: read-out: Human M1 EC50; for Emax: read-out: Human M1 Emax (%)
# Summary of the method: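 PAM potency reflects the concentration-dependent increase in calcium response to an EC20 acetylcholine challenge, given 144 s into a 300 s read after compound addition at 4 s (EC80 follows at 230 s). Cells were hM1-expressing CHO-K1, loaded 50 min with Fluo-4 AM. Curves used 11 points at 1:3 dilutions and four-parameter logistic fitting.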
Compound,EC50 [nM],Emax [%]
"Cc1csc2c(Cc3ccc(-c4ccn(C)n4)cc3)cc(C(=O)NC3CC(F)(F)C3)nc12 [Compound 309, N-(3,3-difluorocyclobutyl)-3-methyl-7-[[4-(1-methylpyrazol-3-yl)phenyl]methyl]thieno[3,2-b]pyridine-5-carboxamide]",4930,57.3
"Cc1csc2c(Cc3ccc(-c4ccn(C)n4)cc3)cc(C(=O)N[C@H]3CCCC[C@@H]3O)nc12 [Compound 312, N-[(1S,2S)-2-hydroxycyclohexyl]-3-methyl-7-[[4-(1-methylpyrazol-3-yl)phenyl]methyl]thieno[3,2-b]pyridine-5-carboxamide]",109,65.5
Cc1csc2c(Cc3ccc(-c4ccn(C)n4)cc3)cc(C(=O)N[C@H]3CCOC[C@@H]3O)nc12 [Compound 313],22.7,63.9
"Cc1csc2c(Cc3ccc(-n4cccn4)cc3)cc(C(=O)NC3COC3)nc12 [Compound 319, 3-methyl-N-(oxetan-3-yl)-7-[(4-pyrazol-1-ylphenyl)methyl]thieno[3,2-b]pyridine-5-carboxamide]",1810,56.1
"Cc1csc2c(Cc3ccc(-n4cccn4)cc3)cc(C(=O)NCC3CCCCO3)nc12 (stereo not drawn) [Compound 320, 3-methyl-7-[(4-pyrazol-1-ylphenyl)methyl]-N-(tetrahydropyran-2-ylmethyl)thieno[3,2-b]pyridine-5-carboxamide]",3980,60.7
"Cc1csc2c(Cc3ccc(-n4cccn4)cc3)cc(C(=O)NCC3CCOC3)nc12 (stereo not drawn) [Compound 321, 3-methyl-7-[(4-pyrazol-1-ylphenyl)methyl]-N-(tetrahydrofuran-3-ylmethyl)thieno[3,2-b]pyridine-5-carboxamide]",805,79.2
"Cc1csc2c(Cc3ccc(-n4cccn4)cc3)cc(C(=O)NCC3CCO3)nc12 (stereo not drawn) [Compound 324, 3-methyl-N-(oxetan-2-ylmethyl)-7-[(4-pyrazol-1-ylphenyl)methyl]thieno[3,2-b]pyridine-5-carboxamide]",1050,78.9
"CC1CC(NC(=O)c2cc(Cc3ccc(-c4ccn(C)n4)cc3)c3sccc3n2)CC(C)O1 (stereo not drawn) [Compound 326, N-(2,6-dimethyltetrahydropyran-4-yl)-7-[[4-(1-methylpyrazol-3-yl)phenyl]methyl]thieno[3,2-b]pyridine-5-carboxamide]",2840,83.9
"Cn1cc(-c2ccc(Cc3cc(C(=O)N[C@H]4CC[C@@H]4O)nc4ccsc34)cn2)cn1 [Compound 328, N-[(1S,2S)-2-hydroxycyclobutyl]-7-[[6-(1-methylpyrazol-4-yl)-3-pyridyl]methyl]thieno[3,2-b]pyridine-5-carboxamide]",197,80.5
"Cc1nc(-c2ccc(Cc3cc(C(=O)NC4CCOCC4)nc4c(C)csc34)cc2)co1 [Compound 329, 3-methyl-7-[[4-(2-methyloxazol-4-yl)phenyl]methyl]-N-tetrahydropyran-4-yl-thieno[3,2-b]pyridine-5-carboxamide]",458,73.5
"Cc1nc(-c2ccc(Cc3cc(C(=O)N[C@H]4CCC[C@@H]4O)nc4c(C)csc34)cc2)co1 [Compound 331, N-[(1S,2S)-2-hydroxycyclopentyl]-3-methyl-7-[[4-(2-methyloxazol-4-yl)phenyl]methyl]thieno[3,2-b]pyridine-5-carboxamide]",368,69.7
O=C(NC1CC2(COC2)C1)c1cc(Cc2ccc(-c3nccs3)cc2)c2sccc2n1 [Compound 333],446,84.7
"Cn1cc(-c2ccc(Cc3cc(C(=O)NCC4CCOCC4)nc4ccsc34)cn2)cn1 [Compound 334, 7-[[6-(1-methylpyrazol-4-yl)-3-pyridyl]methyl]-N-(tetrahydropyran-4-ylmethyl)thieno[3,2-b]pyridine-5-carboxamide]",103,83
"Cn1cc(-c2ccc(Cc3cc(C(=O)NCC4CCO4)nc4ccsc34)cn2)cn1 (stereo not drawn) [Compound 338, 7-[[6-(1-methylpyrazol-4-yl)-3-pyridyl]methyl]-N-(oxetan-2-ylmethyl)thieno[3,2-b]pyridine-5-carboxamide]",84.9,93.3

# More lines, in order of falling EC50, values ahead:
EC50 [nM],Emax [%],Compound
1680,43.1,"Cc1csc2c(Cc3ccc(-n4cccn4)cc3)cc(C(=O)N[C@H]3CCOC3)nc12 [Compound 317, 3-methyl-7-[(4-pyrazol-1-ylphenyl)methyl]-N-[(3S)-tetrahydrofuran-3-yl]thieno[3,2-b]pyridine-5-carboxamide]"
1410,72.2,"Cc1csc2c(Cc3ccc(-n4cccn4)cc3)cc(C(=O)NCC3CCOCC3)nc12 [Compound 318, 3-methyl-7-[(4-pyrazol-1-ylphenyl)methyl]-N-(tetrahydropyran-4-ylmethyl)thieno[3,2-b]pyridine-5-carboxamide]"
1090,56.5,"Cc1csc2c(Cc3ccc(-n4cccn4)cc3)cc(C(=O)N[C@@H]3CCOC3)nc12 [Compound 316, 3-methyl-7-[(4-pyrazol-1-ylphenyl)methyl]-N-[(3R)-tetrahydrofuran-3-yl]thieno[3,2-b]pyridine-5-carboxamide]"
907,83.3,"Cn1ccc(-c2ccc(Cc3cc(C(=O)NC4CCOC(C)(C)C4)nc4ccsc34)cc2)n1 (stereo not drawn) [Compound 325, N-(2,2-dimethyltetrahydropyran-4-yl)-7-[[4-(1-methylpyrazol-3-yl)phenyl]methyl]thieno[3,2-b]pyridine-5-carboxamide]"
852,84.2,CC1(C)CC(NC(=O)c2cc(Cc3ccc(-c4nccs4)cc3)c3sccc3n2)CCO1 (stereo not drawn) [Compound 337]
714,77.1,"Cc1csc2c(Cc3ccc(-c4ccn(C)n4)cc3)cc(C(=O)NCC3CCOC3)nc12 (stereo not drawn) [Compound 311, 3-methyl-7-[[4-(1-methylpyrazol-3-yl)phenyl]methyl]-N-(tetrahydrofuran-3-ylmethyl)thieno[3,2-b]pyridine-5-carboxamide]"
689,76.8,"Cc1csc2c(Cc3ccc(-n4cccn4)cc3)cc(C(=O)NC[C@@H]3CCCO3)nc12 [Compound 323, 3-methyl-7-[(4-pyrazol-1-ylphenyl)methyl]-N-[[(2S)-tetrahydrofuran-2-yl]methyl]thieno[3,2-b]pyridine-5-carboxamide]"
620,75.1,"Cc1csc2c(Cc3ccc(-n4cccn4)cc3)cc(C(=O)NC[C@H]3CCCO3)nc12 [Compound 322, 3-methyl-7-[(4-pyrazol-1-ylphenyl)methyl]-N-[[(2R)-tetrahydrofuran-2-yl]methyl]thieno[3,2-b]pyridine-5-carboxamide]"
475,82.3,"Cc1csc2c(Cc3ccc(-n4cccn4)cc3)cc(C(=O)NC3CC4(COC4)C3)nc12 [Compound 315, 3-methyl-N-(2-oxaspiro[3.3]heptan-6-yl)-7-[(4-pyrazol-1-ylphenyl)methyl]thieno[3,2-b]pyridine-5-carboxamide]"
471,78.1,"Cc1csc2c(Cc3ccc(-c4ccn(C)n4)cc3)cc(C(=O)NCC3CCO3)nc12 (stereo not drawn) [Compound 310, 3-methyl-7-[[4-(1-methylpyrazol-3-yl)phenyl]methyl]-N-(oxetan-2-ylmethyl)thieno[3,2-b]pyridine-5-carboxamide]"
203,84.1,O=C(N[C@H]1CCC[C@@H]1O)c1cc(Cc2ccc(-c3nccs3)cc2)c2sccc2n1 [Compound 314]
166,79.2,"Cn1cc(-c2ccc(Cc3cc(C(=O)NC4CC5(COC5)C4)nc4ccsc34)cn2)cn1 [Compound 327, 7-[[6-(1-methylpyrazol-4-yl)-3-pyridyl]methyl]-N-(2-oxaspiro[3.3]heptan-6-yl)thieno[3,2-b]pyridine-5-carboxamide]"
158,83.6,"CC1CC(NC(=O)c2cc(Cc3ccc(-c4cnn(C)c4)nc3)c3sccc3n2)CC(C)O1 (stereo not drawn) [Compound 335, N-(2,6-dimethyltetrahydropyran-4-yl)-7-[[6-(1-methylpyrazol-4-yl)-3-pyridyl]methyl]thieno[3,2-b]pyridine-5-carboxamide]"
64.3,58.4,"Cn1cc(-c2ccc(Cc3cc(C(=O)NC4CCOC(C)(C)C4)nc4ccsc34)cn2)cn1 (stereo not drawn) [Compound 336, N-(2,2-dimethyltetrahydropyran-4-yl)-7-[[6-(1-methylpyrazol-4-yl)-3-pyridyl]methyl]thieno[3,2-b]pyridine-5-carboxamide]"
56.9,69,"O=C(NC1CCOCC1)c1cc(C(F)c2ccc(-c3cscn3)cc2)c2sccc2n1 (stereo not drawn) [Compound 332, 7-[fluoro-(4-thiazol-4-ylphenyl)methyl]-N-tetrahydropyran-4-yl-thieno[3,2-b]pyridine-5-carboxamide]"
22.8,62.8,"Cc1nc(-c2ccc(Cc3cc(C(=O)N[C@H]4CCOC[C@@H]4O)nc4c(C)csc34)cc2)co1 [Compound 330, N-[(3R,4S)-3-hydroxytetrahydropyran-4-yl]-3-methyl-7-[[4-(2-methyloxazol-4-yl)phenyl]methyl]thieno[3,2-b]pyridine-5-carboxamide]"
